# Laboratory results reported in US20190216793A1, “COMPOSITIONS AND METHODS FOR TREATING NEGATIVE SYMPTOMS IN NON-SCHIZOPHRENIC PATIENTS” (Minerva Neurosciences, Inc., priority 2016, published 2019).
# Read-outs that look alike come from different tables or passages of the source.
# Legend:
# [1] = QT interval association of metabolite; assay type: in vivo; settings: supra-therapeutic levels
# sigma2 [2] = molecular target: T1, sigma2 (Homo sapiens, UniProt Q5BJF2); assay: receptor affinity; assay type: binding
# [3] = molecular target: 5-hydroxytryptamine-2A (5-HT2A) (Homo sapiens, UniProt P28223); assay: receptor affinity; assay type: binding
# α1-adrenergic receptors = assay: receptor affinity; assay type: binding
# [4] = tested on: patients with negative symptoms of schizophrenia; settings: for improvement of negative symptoms compared to placebo: 32 mg and 64 mg daily doses, 244 schizophrenic patients; for effect size, PANSS Negative Subscale score (pentagonal model), change from baseline vs placebo: schizophrenic patients
# sigma2 [5] = molecular target: T1, sigma2; assay: in vivo functional studies; set-up: In vivo functional studies have established that MIN-101 is an antagonist; from tissue; host or cells: whole organism in vivo
# dopaminergic receptors = assay: receptor affinity; assay type: binding
# muscarinic receptors = assay: receptor affinity; assay type: binding
# cholinergic receptors = assay: receptor affinity; assay type: binding
# histaminergic receptors = assay: receptor affinity; assay type: binding
# 5-HT2A receptors = molecular target: T2, 5-HT2A receptors (Homo sapiens, UniProt P28223); assay: in vivo functional studies
# T2 construct: In vivo functional studies have established that MIN-101 is an antagonist; from tissue; host or cells: whole organism in vivo
# T2 sequence (P28223 whole entry): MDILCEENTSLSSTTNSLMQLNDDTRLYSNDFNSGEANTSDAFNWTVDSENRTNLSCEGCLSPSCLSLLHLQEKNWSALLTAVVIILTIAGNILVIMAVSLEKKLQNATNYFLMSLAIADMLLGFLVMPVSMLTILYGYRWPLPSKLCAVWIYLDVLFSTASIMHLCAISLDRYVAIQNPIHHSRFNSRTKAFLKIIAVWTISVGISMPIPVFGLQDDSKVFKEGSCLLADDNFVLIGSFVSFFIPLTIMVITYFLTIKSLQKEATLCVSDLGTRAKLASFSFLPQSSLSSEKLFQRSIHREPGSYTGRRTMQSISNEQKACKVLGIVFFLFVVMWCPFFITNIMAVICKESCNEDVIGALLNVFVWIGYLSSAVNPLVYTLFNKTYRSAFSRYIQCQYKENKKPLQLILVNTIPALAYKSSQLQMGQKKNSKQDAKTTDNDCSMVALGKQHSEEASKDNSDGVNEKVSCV
# T1 sequence (Q5BJF2 whole entry): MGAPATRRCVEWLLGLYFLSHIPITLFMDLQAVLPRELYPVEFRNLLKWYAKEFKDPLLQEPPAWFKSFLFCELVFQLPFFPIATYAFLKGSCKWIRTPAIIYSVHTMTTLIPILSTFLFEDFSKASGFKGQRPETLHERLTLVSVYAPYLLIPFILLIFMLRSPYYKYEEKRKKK
# Chain of 5-hydroxytryptamine-2A (5-HT2A) (P28223 whole entry, species assumed): as the sequence (P28223 whole entry) above
smiles,measurement,setting,value
O=C1c2ccccc2CN1CC1CCN(CC(O)c2ccc(F)cc2)CC1 (stereo not drawn) [BFB-520],effect on QT intervals,[1],prolongation of QT intervals
O=C(CN1CCC(CN2Cc3ccccc3C2=O)CC1)c1ccc(F)cc1 [Compound I],affinity for sigma2,sigma2 [2],specific affinities
same,affinity for 5-HT2A,[3],specific affinities
same,affinity for α1-adrenergic receptors,α1-adrenergic receptors,lower affinity levels
same,improvement of negative symptoms compared to placebo,[4]; 12 weeks,statistically significant improvement
same,functional activity at sigma2 receptors,sigma2 [5],antagonizes sigma2 activity
"Cl.O.O.O=C(CN1CCC(CN2Cc3ccccc3C2=O)CC1)c1ccc(F)cc1 [MIN-101, 2-{1-[2-(4-Fluorophenyl)-2-oxoethyl]piperidin-4-ylmethyl}-2,3-dihydroisoindol-1-one monohydrochloride dihydrate]",affinity for dopaminergic receptors,dopaminergic receptors,very low or no affinity
same,affinity for muscarinic receptors,muscarinic receptors,very low or no affinity
same,affinity for cholinergic receptors,cholinergic receptors,very low or no affinity
same,affinity for histaminergic receptors,histaminergic receptors,very low or no affinity
same,functional activity at 5-HT2A receptors,5-HT2A receptors,antagonist
same,improvement of negative symptoms compared to placebo,[4]; 12 weeks,statistically significant benefit
same,"effect size, PANSS Negative Subscale score (pentagonal model), change from baseline vs placebo","[4]; 32 mg daily, 12 weeks, p≤0.023",0.45
same,"effect size, PANSS total score vs placebo","[4]; 32 mg daily, 12 weeks, not significant",0.35
same,"effect size, PANSS three factors negative symptoms subscale vs placebo","[4]; 32 mg daily, 12 weeks, p≤0.006",0.55
same,"effect size, PANSS Negative Subscale score (pentagonal model), change from baseline vs placebo","[4]; 64 mg daily, 12 weeks, p≤0.003",0.57
same,"effect size, PANSS three factors negative symptoms subscale vs placebo","[4]; 64 mg daily, 12 weeks, p≤0.001",0.70
same,"effect size, PANSS total score vs placebo","[4]; 64 mg daily, 12 weeks, p≤0.003",0.59
same,positive symptoms during the trial,[4]; 12-week trial,remained stable
same,effect on negative symptoms measured using the BNSS total score,"[4]; both doses (32 mg and 64 mg daily), 12 weeks",Improvement in negative symptoms
same,"incidence and types of side effects, MIN-101 group vs placebo group","[4]; human, in vivo",did not differ significantly
same,metabolic adverse effects,"[4]; human, in vivo",no metabolic adverse effects
same,prolactin elevation,"[4]; human, in vivo",no prolactin elevation
same,functional activity at sigma2 receptors,sigma2 [5],antagonist
